Test [1] concerns the target T1, Alpha-1A adrenergic receptor (Homo sapiens, UniProt P35348).
T1 sequence (P35348 whole entry): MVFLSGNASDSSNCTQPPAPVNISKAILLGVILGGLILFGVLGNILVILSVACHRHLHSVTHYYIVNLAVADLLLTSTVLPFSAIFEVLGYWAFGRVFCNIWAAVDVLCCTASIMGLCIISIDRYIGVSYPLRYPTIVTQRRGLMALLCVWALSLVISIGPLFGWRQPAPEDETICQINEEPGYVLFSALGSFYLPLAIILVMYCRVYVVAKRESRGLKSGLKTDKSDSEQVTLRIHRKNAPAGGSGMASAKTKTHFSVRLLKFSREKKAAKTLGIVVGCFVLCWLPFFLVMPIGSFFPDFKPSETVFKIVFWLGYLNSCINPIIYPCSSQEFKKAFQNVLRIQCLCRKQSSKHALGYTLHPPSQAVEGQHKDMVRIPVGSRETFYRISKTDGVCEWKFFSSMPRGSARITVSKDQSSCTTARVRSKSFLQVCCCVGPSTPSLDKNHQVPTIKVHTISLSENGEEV

For test [2], the target named is T2, 5-hydroxytryptamine receptor 1A (Homo sapiens, UniProt P08908).
T2 sequence (P08908 whole entry): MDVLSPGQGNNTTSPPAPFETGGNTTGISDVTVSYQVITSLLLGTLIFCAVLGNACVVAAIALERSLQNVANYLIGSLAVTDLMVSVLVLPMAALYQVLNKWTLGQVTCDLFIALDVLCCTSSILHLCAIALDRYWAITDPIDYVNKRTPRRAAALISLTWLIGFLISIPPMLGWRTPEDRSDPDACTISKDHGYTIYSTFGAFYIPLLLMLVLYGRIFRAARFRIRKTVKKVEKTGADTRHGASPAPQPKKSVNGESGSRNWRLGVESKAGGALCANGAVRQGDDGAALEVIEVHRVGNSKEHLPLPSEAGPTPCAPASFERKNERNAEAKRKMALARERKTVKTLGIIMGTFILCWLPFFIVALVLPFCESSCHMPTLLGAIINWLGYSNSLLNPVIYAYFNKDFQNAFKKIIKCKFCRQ
The format is functional, cell-based.

The target of test [3] is Melanocortin receptor 4 (Homo sapiens, UniProt P32245).
Test [4] has as its target T3, Mu-type opioid receptor (Homo sapiens, UniProt P35372).
The target of test [5] is T1, Alpha-1A adrenergic receptor. The format is functional, cell-based.
Test [6] deals with T3, Mu-type opioid receptor. Put plainly: biochemical. The format is functional.
The target of test [7] is T4, Alpha-2B adrenergic receptor (Homo sapiens, UniProt P18089).
T4 sequence (P18089 whole entry): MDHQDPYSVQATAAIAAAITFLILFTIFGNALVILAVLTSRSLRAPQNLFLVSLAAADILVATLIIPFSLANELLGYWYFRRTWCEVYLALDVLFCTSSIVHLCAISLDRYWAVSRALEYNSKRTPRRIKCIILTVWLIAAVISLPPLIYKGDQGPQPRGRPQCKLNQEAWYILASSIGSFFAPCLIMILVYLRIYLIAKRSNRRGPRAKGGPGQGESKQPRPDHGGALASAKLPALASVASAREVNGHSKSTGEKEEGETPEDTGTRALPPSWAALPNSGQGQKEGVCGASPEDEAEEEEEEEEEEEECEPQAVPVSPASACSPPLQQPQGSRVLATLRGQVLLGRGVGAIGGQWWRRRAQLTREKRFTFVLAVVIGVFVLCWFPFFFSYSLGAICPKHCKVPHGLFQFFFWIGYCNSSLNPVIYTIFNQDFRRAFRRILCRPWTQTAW

The target in test [8] is T5, Muscarinic acetylcholine receptor M1 (Homo sapiens, UniProt P11229).
T5 sequence (P11229 whole entry): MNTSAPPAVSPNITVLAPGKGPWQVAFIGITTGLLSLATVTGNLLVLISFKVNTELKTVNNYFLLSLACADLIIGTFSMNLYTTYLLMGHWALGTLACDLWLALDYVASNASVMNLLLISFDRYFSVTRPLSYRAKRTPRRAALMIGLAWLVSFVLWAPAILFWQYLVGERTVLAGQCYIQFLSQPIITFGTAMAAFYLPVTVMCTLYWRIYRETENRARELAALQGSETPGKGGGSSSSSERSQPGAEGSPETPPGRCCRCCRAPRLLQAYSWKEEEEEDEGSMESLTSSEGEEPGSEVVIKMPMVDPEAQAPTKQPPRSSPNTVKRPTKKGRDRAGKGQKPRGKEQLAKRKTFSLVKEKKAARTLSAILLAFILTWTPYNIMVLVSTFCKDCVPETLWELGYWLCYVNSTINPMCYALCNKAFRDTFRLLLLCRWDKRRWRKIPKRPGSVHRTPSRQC
The format is functional.

In test [9] the target is Histamine H1 receptor (Homo sapiens, UniProt P35367).
The target in test [10] is Muscarinic acetylcholine receptor M3 (Homo sapiens, UniProt P20309).
For test [11], the target named is Cannabinoid receptor 1 (Homo sapiens, UniProt P21554). The format is functional, cell-based.
Test [12] concerns the target Beta-2 adrenergic receptor (Homo sapiens, UniProt P07550). The format is functional, cell-based.
Note: assay procedure not described here.

Sequence of Cannabinoid receptor 1 (P21554 whole entry): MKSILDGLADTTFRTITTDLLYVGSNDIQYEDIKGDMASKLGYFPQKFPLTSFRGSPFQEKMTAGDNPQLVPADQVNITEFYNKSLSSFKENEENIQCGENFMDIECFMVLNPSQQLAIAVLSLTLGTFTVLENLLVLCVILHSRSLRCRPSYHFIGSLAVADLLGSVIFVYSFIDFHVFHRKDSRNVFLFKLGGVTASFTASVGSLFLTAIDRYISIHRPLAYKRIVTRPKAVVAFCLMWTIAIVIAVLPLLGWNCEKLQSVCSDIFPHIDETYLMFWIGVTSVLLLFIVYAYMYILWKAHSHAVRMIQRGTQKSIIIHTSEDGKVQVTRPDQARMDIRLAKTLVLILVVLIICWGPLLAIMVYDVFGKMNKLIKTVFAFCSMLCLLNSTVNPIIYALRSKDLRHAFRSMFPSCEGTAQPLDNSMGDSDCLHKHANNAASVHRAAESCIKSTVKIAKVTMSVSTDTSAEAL
Sequence of Histamine H1 receptor (P35367 whole entry): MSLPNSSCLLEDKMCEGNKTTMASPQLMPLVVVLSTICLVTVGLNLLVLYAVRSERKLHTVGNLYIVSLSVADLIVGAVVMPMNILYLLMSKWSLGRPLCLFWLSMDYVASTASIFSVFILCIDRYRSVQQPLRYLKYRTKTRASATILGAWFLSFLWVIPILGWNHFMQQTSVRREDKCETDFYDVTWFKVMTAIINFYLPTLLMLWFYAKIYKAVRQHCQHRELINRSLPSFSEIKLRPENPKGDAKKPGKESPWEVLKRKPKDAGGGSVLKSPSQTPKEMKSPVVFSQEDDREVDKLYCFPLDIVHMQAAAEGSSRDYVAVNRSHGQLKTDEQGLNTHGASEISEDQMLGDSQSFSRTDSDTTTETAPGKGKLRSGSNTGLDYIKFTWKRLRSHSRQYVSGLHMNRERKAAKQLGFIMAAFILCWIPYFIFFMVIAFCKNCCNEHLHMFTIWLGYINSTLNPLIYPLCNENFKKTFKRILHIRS
Sequence of Melanocortin receptor 4 (P32245 whole entry): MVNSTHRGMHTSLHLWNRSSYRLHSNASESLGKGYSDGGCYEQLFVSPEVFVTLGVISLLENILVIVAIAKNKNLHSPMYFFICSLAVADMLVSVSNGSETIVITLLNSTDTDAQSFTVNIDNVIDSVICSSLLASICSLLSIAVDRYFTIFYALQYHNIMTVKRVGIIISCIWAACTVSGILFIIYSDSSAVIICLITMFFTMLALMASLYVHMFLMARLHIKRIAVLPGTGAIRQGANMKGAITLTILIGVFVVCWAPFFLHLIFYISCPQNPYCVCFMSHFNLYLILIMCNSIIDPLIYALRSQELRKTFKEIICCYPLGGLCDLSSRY
Sequence of Muscarinic acetylcholine receptor M3 (P20309 whole entry): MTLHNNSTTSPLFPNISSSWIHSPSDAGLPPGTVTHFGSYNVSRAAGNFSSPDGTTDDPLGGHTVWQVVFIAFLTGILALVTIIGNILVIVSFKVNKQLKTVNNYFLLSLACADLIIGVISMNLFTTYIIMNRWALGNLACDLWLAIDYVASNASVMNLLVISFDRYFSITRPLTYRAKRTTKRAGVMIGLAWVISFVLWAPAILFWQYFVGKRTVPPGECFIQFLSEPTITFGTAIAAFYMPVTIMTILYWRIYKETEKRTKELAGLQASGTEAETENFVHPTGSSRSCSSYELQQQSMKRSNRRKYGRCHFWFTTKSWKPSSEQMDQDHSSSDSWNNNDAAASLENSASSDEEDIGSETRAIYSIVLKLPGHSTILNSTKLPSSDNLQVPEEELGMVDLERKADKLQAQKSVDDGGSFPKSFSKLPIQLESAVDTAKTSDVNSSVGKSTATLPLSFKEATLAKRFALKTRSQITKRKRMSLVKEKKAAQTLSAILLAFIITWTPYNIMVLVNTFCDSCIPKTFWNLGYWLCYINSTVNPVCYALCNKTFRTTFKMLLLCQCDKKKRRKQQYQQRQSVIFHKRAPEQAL
T3 sequence (P35372 whole entry): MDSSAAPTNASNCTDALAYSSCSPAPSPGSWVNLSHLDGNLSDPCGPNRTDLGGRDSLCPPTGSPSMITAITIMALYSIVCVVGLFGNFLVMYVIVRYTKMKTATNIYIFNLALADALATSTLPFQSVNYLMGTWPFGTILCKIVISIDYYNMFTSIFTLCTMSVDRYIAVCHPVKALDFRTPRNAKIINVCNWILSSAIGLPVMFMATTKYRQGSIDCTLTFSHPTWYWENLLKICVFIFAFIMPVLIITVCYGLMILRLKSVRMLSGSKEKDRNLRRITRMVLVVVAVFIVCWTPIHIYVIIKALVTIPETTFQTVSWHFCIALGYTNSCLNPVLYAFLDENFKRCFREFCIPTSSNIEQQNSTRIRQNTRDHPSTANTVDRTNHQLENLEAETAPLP
Sequence of Beta-2 adrenergic receptor (P07550 whole entry): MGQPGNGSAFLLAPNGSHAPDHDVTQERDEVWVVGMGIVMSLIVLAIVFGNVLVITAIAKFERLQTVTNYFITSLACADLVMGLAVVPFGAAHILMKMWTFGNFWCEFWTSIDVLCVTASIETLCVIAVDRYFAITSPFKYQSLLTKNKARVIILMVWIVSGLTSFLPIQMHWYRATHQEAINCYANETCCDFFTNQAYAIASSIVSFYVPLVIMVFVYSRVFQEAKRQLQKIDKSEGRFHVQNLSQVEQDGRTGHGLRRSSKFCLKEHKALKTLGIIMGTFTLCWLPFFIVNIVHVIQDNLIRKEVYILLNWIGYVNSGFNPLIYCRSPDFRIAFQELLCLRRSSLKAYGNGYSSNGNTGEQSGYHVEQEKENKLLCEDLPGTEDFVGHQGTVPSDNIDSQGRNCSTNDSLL

As to `COc1ccc2cc(CCC(C)=O)ccc2c1` [NABUMETONE], the AC50 in test [1] is > 30 µM; in [2] it was > 10 µM; in test [3], > 10 µM; in test [4], > 30 µM; in test [5], > 30 µM; in test [6], > 30 µM.
In the case of `CC1=C(/C=C/C(C)=C/C=C/C(C)=C/CO)C(C)(C)CCC1` [RETINOL], the concentration at half-maximal activity (AC50) in [1] was > 10 µM; in test [7], > 30 µM; in test [2], > 10 µM; in [3] it was > 10 µM; in test [8] it was > 10 µM; in [4], > 30 µM. Also, the values for the AC50 in test [9], in test [10] and in test [6] were > 10 µM, > 30 µM and > 30 µM, respectively.
On to `CCCN(CCC)S(=O)(=O)c1ccc(C(=O)O)cc1` [PROBENECID], for which the AC50 in test [1] is > 10 µM; in test [2], > 10 µM; in test [3] it was > 10 µM; in [4], > 30 µM.
`NS(=O)(=O)c1cc2c(cc1Cl)N=C(CSCc1ccccc1)NS2(=O)=O` [BENZTHIAZIDE]: the concentration at half-maximal activity (AC50) in test [1] is > 30 µM; in test [7] it was 7.4 µM; in test [2] it was > 10 µM; in test [3], > 10 µM; in test [8], > 30 µM; in test [4], > 30 µM. Besides, the AC50 in test [9], in test [10] and in test [6] was > 30 µM each time.
On to `O=C(c1cc(Cc2n[nH]c(=O)c3ccccc23)ccc1F)N1CCN(C(=O)C2CC2)CC1` [OLAPARIB], for which the half-maximal activity concentration (AC50) is > 10 µM in test [1]; > 10 µM in test [7]; > 30 µM in test [3]; > 10 µM in test [8]; > 30 µM in [4]; > 10 µM in [9]. In addition, in test [10], the AC50 was > 30 µM.
With `NC(=O)NC(=O)Cc1ccccc1` [PHENACEMIDE], the half-maximal activity concentration (AC50) in [1] is > 10 µM; in [2], > 10 µM; in test [3], > 10 µM; in [4] it was > 30 µM.
Take `C[C@]12C/C(=C/O)C(=O)C[C@@H]1CC[C@@H]1[C@@H]2CC[C@@]2(C)[C@H]1CC[C@]2(C)O` [OXYMETHOLONE]: the AC50 in [11], in test [5], in test [12] and in [6] was > 30 µM in each case.
In the case of `O=C(O)c1ccc(NC(=O)[C@H](Cc2ccc(O)cc2)NC(=O)c2ccccc2)cc1` [BENTIROMIDE], the AC50 in [1] is > 10 µM; in test [7], > 10 µM; in test [2], > 10 µM; in test [3], > 10 µM; in [8], > 10 µM; in [4], > 30 µM. The AC50 in test [9] was > 10 µM; in [10] it was > 30 µM.
As to `CC(C)[C@@H](C)/C=C/[C@@H](C)[C@H]1CC[C@H]2/C(=C/C=C3\C[C@@H](O)CC[C@@H]3C)CCC[C@]12C` [DIHYDROTACHYSTEROL], the AC50 in test [1] was > 10 µM; in test [7], > 10 µM; in test [2] it was > 10 µM; in test [3], > 10 µM; in test [8], > 10 µM; in [4] it was > 30 µM. Further, the half-maximal activity concentration (AC50) in [9] was > 10 µM; in test [10], > 30 µM.
For the compound `CCC1(CCC(C)C)C(=O)NC(=O)NC1=O` [AMOBARBITAL], the AC50 in test [1] is > 10 µM; in test [2], > 10 µM; in test [3], > 10 µM; in test [4], > 30 µM.
As for `CCOC(=O)c1ncn2c1CN(C)C(=O)c1cc(F)ccc1-2` [FLUMAZENIL], the concentration at half-maximal activity (AC50) in test [1] is > 10 µM; in test [2], > 10 µM; in test [3], > 30 µM; in test [4], > 30 µM; in [5], > 30 µM; in test [6], > 30 µM.
Turning to `Cc1cc(C)nc(NS(=O)(=O)c2ccc(N)cc2)n1` [SULFAMETHAZINE], the concentration at half-maximal activity (AC50) in test [1] is > 30 µM; in [2], > 10 µM; in test [3], > 10 µM; in test [4], > 30 µM; in test [6], > 30 µM.
Regarding `NNC(=O)c1ccncc1` [ISONIAZID], the AC50 in test [1] was > 10 µM; in test [2], > 10 µM; in test [3], > 30 µM; in test [11] it was > 30 µM; in [4], > 30 µM; in test [5], > 30 µM. The AC50 in [6] was > 30 µM.
On to `C[C@@H]1C[C@H]2[C@@H]3CCC4=CC(=O)C=C[C@]4(C)[C@@]3(F)[C@@H](O)C[C@]2(C)[C@@]1(O)C(=O)CO` [DEXAMETHASONE], for which the half-maximal activity concentration (AC50) in [1] was > 30 µM; in [2], > 10 µM; in test [3], > 30 µM; in [4] it was > 30 µM; in test [6], > 30 µM.
Consider `CC(c1cc2ccccc2s1)N(O)C(N)=O` (stereo unspecified) [ZILEUTON], for which the concentration at half-maximal activity (AC50) is > 10 µM in test [1]; > 10 µM in [3]; > 30 µM in test [11]; > 30 µM in [4]; > 30 µM in test [5].
`COc1ccc(C2C(=O)c3ccccc3C2=O)cc1` [ANISINDIONE]: the half-maximal activity concentration (AC50) in test [1] was > 30 µM; in test [2], > 10 µM; in test [3], > 10 µM; in [4], > 30 µM; in [6], > 30 µM.
On to `CCCC(C)(COC(N)=O)COC(N)=O` [MEPROBAMATE], for which the concentration at half-maximal activity (AC50) is > 30 µM in test [1]; > 10 µM in test [7]; > 10 µM in [2]; > 10 µM in test [3]; > 30 µM in [8]; > 30 µM in test [4]. For the same compound, the half-maximal activity concentration (AC50) in test [9] is > 10 µM; in [10] it was > 30 µM; in test [6] it was > 30 µM.
In the case of `COc1cc(C)c(/C=C/C(C)=C/C=C/C(C)=C/C(=O)O)c(C)c1C` [ACITRETIN], the concentration at half-maximal activity (AC50) in [1] is > 10 µM; in [7], > 10 µM; in [3], > 10 µM; in test [8] it was > 10 µM; in test [11] it was > 30 µM; in test [4] it was > 30 µM. Also, the figures for the half-maximal activity concentration (AC50) in [5], in [9] and in [10] were > 30 µM, > 10 µM and > 30 µM, respectively.
On to `O=C(CCCN1CCC(O)(c2ccc(Br)cc2)CC1)c1ccc(F)cc1` [BROMPERIDOL], for which the AC50 was 1.2 µM in [2]; 20 µM in test [8]; > 30 µM in [11]; 0.28 µM in test [5]; 12 µM in test [10]; > 30 µM in test [12]. In test [6], this compound registered a concentration at half-maximal activity (AC50) of 2 µM.
For the compound `CC(=O)[C@H]1CC[C@H]2[C@@H]3C[C@H](C)C4=CC(=O)CC[C@]4(C)[C@H]3[C@@H](O)C[C@]12C` [MEDRYSONE], the AC50 was > 10 µM in test [1]; > 10 µM in test [7]; > 10 µM in [2]; > 10 µM in [3]; > 10 µM in test [8]; > 30 µM in test [11]. The half-maximal activity concentration (AC50) in test [4] was > 30 µM; in test [5] it was > 30 µM; in [9], > 10 µM; in test [10] it was > 30 µM.

The values above are taken from ChEMBL document CHEMBL5291721, “A preclinical secondary pharmacology resource illuminates target-adverse drug reaction associations of marketed drugs” (Nat Commun, 2023).
